Experimental data from patent US20230277452A1, “COMPOSITIONS, DEVICES AND METHODS FOR TREATING NASAL, OTIC AND OTHER TISSUE INFECTION AND/OR INFLAMMATION” (priority 2020, published 2023).

Tests used:
[1] = Storage stability: impurities/degradants by HPLC; format: physicochemical
Experimental: Particle size and globule size were likewise measured at the start of storage and at the one month or three month interval, respectively, according to USP 729. Impurities were also measured at the start of storage and at the one month or three month intervals, respectively. Viscosity was also measured at the start of storage and at the one month or three month intervals, respectively. Osmolality was also measured at the start of storage and at the one month or three month intervals, respectively, according to USP 785. Briefly, to measure betamethasone dipropionate and betamethasone content as well as impurities/degradants, HPLC was used. […] The 50 mL tubes were then removed from the heat and vortex mixed again for 30 seconds. If necessary, the tubes were returned to the water bath to prevent cooling. […] The tubes were then centrifuged for 30 minutes at 12,000 RPM and supernatant was transferred to a HPLC vial for analysis. The HPLC system was rinsed well with 50:50 acetonitrile:water to remove buffer salts after each run. […] HPLC was run using a Hypersil ODS 10×30 mm, 3 μm column as the Guard Column and a Hypersil ODS 3×150 mm, 3 μm column as the Analytical Column. The column temperature was maintained at 35° C. with a runtime of 45 minutes, a flow rate of 0.5 mL/minute, an injection volume of 3 μL, an autosampler temperature of 30° C., and using a 254 nm (UV absorbance) detector and collecting PDA from 200 nm to 400 nm for identification testing. […] Mobile Phase B was prepared as 88:12 methanol:acetonitrile. […] All mobile phase solutions were mixed well and degassed prior to use. […] A Working Standard Solution was prepared from 3.0 mL of the IS Stock Solution and 8.0 mL of the BD Stock in a 50 mL volumetric flask to which 150 mg of benzyl alcohol reference standard was added and diluent added to volume followed by mixing well. […] System suitability requirements included those in Table 38. The Ratio RT (RRT) in Table 39 can be calculated from the ratio of the sample retention time to the mean retention time of the bracketing standards.

[2] = Recovery of force-degraded MFM spiked into placebo cream and of active cream (0.1% MFM), HPLC; format: physicochemical
Experimental: MFM neat and degraded materials were spiked into placebo cream (lot #2020-11-01) to investigate potential partitioning effects and peak interferences and to compare spiked and active cream samples by the procedure in Table 50 with the exception that for acid, base and peroxide degradations, the additions of HCl, NaOH and peroxide were calculated accordingly.
Percent recovery of Force-Degraded Materials Spiked into Placebo is provided in Table 51 below while recovery of active cream formulation (0.1% MFM) is provided in Table 52 below.

[3] = stored at 25° C./60% RH, 1 Month, Mean
[4] = stored at 25° C./60% RH, 1 Month, Prep #1
[5] = stored at 25° C./60% RH, 1 Month, Prep #2
[6] = stored at 25° C./60% RH, 3 Month, Mean
[7] = stored at 25° C./60% RH, 3 Month, Prep #1
[8] = stored at 25° C./60% RH, 3 Month, Prep #2
[9] = stored at 25° C./60% RH, Initial, Mean
[10] = stored at 25° C./60% RH, Initial, Prep #2
[11] = stored at 30° C./65% RH, 1 Month, Mean
[12] = stored at 30° C./65% RH, 1 Month, Prep #1
[13] = stored at 30° C./65% RH, 1 Month, Prep #2
[14] = stored at 30° C./65% RH, 3 Month, Mean
[15] = stored at 30° C./65% RH, 3 Month, Prep #1
[16] = stored at 30° C./65% RH, 3 Month, Prep #2
[17] = stored at 30° C./65% RH, Initial, Mean
[18] = stored at 30° C./65% RH, Initial, Prep #2
[19] = stored at 40° C./75% RH, 1 Month, Mean
[20] = stored at 40° C./75% RH, 1 Month, Prep #1
[21] = stored at 40° C./75% RH, 1 Month, Prep #2
[22] = stored at 40° C./75% RH, 3 Month, Mean
[23] = stored at 40° C./75% RH, 3 Month, Prep #1
[24] = stored at 40° C./75% RH, 3 Month, Prep #2
[25] = stored at 40° C./75% RH, Initial, Mean
[26] = stored at 40° C./75% RH, Initial, Prep #2

Row | SMILES | Impurity (% of related substances) in Betamethasone Dipropionate Cream Formulation [1, 3] [%] | Impurity (% of related substances) in Betamethasone Dipropionate Cream Formulation [1, 4] [%] | Impurity (% of related substances) in Betamethasone Dipropionate Cream Formulation [1, 5] [%] | Impurity (% of related substances) in Betamethasone Dipropionate Cream Formulation [1, 6] [%] | Impurity (% of related substances) in Betamethasone Dipropionate Cream Formulation [1, 7] [%] | Impurity (% of related substances) in Betamethasone Dipropionate Cream Formulation [1, 8] [%] | Impurity (% of related substances) in Betamethasone Dipropionate Cream Formulation [1, 9] [%] | Impurity (% of related substances) in Betamethasone Dipropionate Cream Formulation [1, 10] [%] | Impurity (% of related substances) in Betamethasone Dipropionate Cream Formulation [1, 11] [%] | Impurity (% of related substances) in Betamethasone Dipropionate Cream Formulation [1, 12] [%] | Impurity (% of related substances) in Betamethasone Dipropionate Cream Formulation [1, 13] [%] | Impurity (% of related substances) in Betamethasone Dipropionate Cream Formulation [1, 14] [%] | Impurity (% of related substances) in Betamethasone Dipropionate Cream Formulation [1, 15] [%] | Impurity (% of related substances) in Betamethasone Dipropionate Cream Formulation [1, 16] [%] | Impurity (% of related substances) in Betamethasone Dipropionate Cream Formulation [1, 17] [%] | Impurity (% of related substances) in Betamethasone Dipropionate Cream Formulation [1, 18] [%] | Impurity (% of related substances) in Betamethasone Dipropionate Cream Formulation [1, 19] [%] | Impurity (% of related substances) in Betamethasone Dipropionate Cream Formulation [1, 20] [%] | Impurity (% of related substances) in Betamethasone Dipropionate Cream Formulation [1, 21] [%] | Impurity (% of related substances) in Betamethasone Dipropionate Cream Formulation [1, 22] [%] | also measured
1 | CCC(=O)OC1(C(=O)CO)C(C)CC2C3CCC4=CC(=O)C=CC4(C)C3(F)C(O)CC21C (stereo not drawn) [Lot 5] | 0.34 | 0.31 | 0.37 | 0.49 | 0.43 | 0.54 | 0.18 | 0.20 | 0.43 | 0.38 | 0.48 | 0.73 | 0.66 | 0.79 | 0.18 | 0.20 | 0.64 | 0.59 | 0.68 | 0.93 | Impurity (% of related substances) in Betamethasone Dipropionate Cream Formulation ([1]; stored at 25° C./60% RH, Initial, Prep #1): 0.16%; Impurity (% of related substances) in Betamethasone Dipropionate Cream Formulation ([1]; stored at 30° C./65% RH, Initial, Prep #1): 0.16%; Impurity (% of related substances) in Betamethasone Dipropionate Cream Formulation [1, 23]: 0.86%; Impurity (% of related substances) in Betamethasone Dipropionate Cream Formulation [1, 24]: 0.99%; Impurity (% of related substances) in Betamethasone Dipropionate Cream Formulation [1, 25]: 0.18%; Impurity (% of related substances) in Betamethasone Dipropionate Cream Formulation ([1]; stored at 40° C./75% RH, Initial, Prep #1): 0.16%; Impurity (% of related substances) in Betamethasone Dipropionate Cream Formulation [1, 26]: 0.20%
2 | CCC(=O)OCC(=O)C1(O)C(C)CC2C3CCC4=CC(=O)C=CC4(C)C3(F)C(O)CC21C (stereo not drawn) [Lot 4] | 0.09 | 0.08 | 0.10 | 0.22 | 0.19 | 0.25 |  |  | 0.15 | 0.13 | 0.17 | 0.50 | 0.44 | 0.56 |  |  | 0.53 | 0.48 | 0.58 | 1.99 | Impurity (% of related substances) in Betamethasone Dipropionate Cream Formulation [1, 23]: 1.86%; Impurity (% of related substances) in Betamethasone Dipropionate Cream Formulation [1, 24]: 2.12%
3 | CCC(=O)OCC(=O)[C@@]1(OC(=O)CC)[C@@H](C)C[C@H]2[C@@H]3CC(Br)C4=CC(=O)C=C[C@]4(C)[C@@]3(F)[C@@H](O)C[C@@]21C (stereo partly drawn) [Lot 9] |  |  |  |  |  |  | 0.12 | 0.12 |  |  |  |  |  |  | 0.12 | 0.12 |  |  |  |  | Impurity (% of related substances) in Betamethasone Dipropionate Cream Formulation [1, 25]: 0.12%; Impurity (% of related substances) in Betamethasone Dipropionate Cream Formulation [1, 26]: 0.12%
4 | C[C@@H]1C[C@H]2[C@@H]3CCC4=CC(=O)C=C[C@]4(C)[C@@]3(Cl)[C@@H](O)C[C@]2(C)[C@@]1(OC(=O)c1ccco1)C(=O)CCl.O [Mometasone Furoate Momohydrate] |  |  |  |  |  |  |  |  |  |  |  |  |  |  |  |  |  |  |  |  | Difference with Placebo (neat vs spiked recovery) ([2]; 0.1N HC1 (1 hour)): 5.23%; Difference with Placebo (neat vs spiked recovery) ([2]; 0.1N NaOH (1 hour)): 0.13%; Difference with Placebo (neat vs spiked recovery) ([2]; 3% H2O2 (1 hour)): 5.20%; Difference with Placebo (neat vs spiked recovery) ([2]; 60° C. (5 days)): 4.96%; Difference with Placebo (neat vs spiked recovery) ([2]; Control (neat MFM)): 5.87%; Difference with Placebo (neat vs spiked recovery) ([2]; White light (5 days)): 5.29%
